{"source": "patent US7485705B2", "about": "“Water-soluble tetrazolium compounds” (Dojindo Laboratories, priority 2003, dated 2009)", "origin": "cited, not measured here"}
{"molecule": "Cc1nc(-[n+]2nc(-c3ccccc3)nn2-c2ccccc2)sc1C.[Br-]", "note": "[MTT, [3-(4,5-dimethylthiazol-2-yl)-2,5-diphenyltetrazolium bromide]]", "values": [{"measurement": "water solubility of the formazan formed upon receiving hydrogen", "result": "insoluble in water"}]}
{"molecule": "COc1cc(-c2ccc(-[n+]3nc(-c4ccccc4)nn3-c3ccc([N+](=O)[O-])cc3)c(OC)c2)ccc1-[n+]1nc(-c2ccccc2)nn1-c1ccc([N+](=O)[O-])cc1.[Cl-].[Cl-]", "note": "[nitro-TB, 3,3′-[3,3′-dimethoxy-(1,1′-biphenyl)-4,4′-diyl]-bis-[2-(4-nitrophenyl)-5-2H tetrazolium chloride]]", "values": [{"measurement": "water solubility of the formazan formed upon receiving hydrogen", "result": "insoluble in water"}]}
